Assay results as given in US8003704B2, “Methods and compositions for the treatment of alcoholism and alcohol dependence” (priority 2000, dated 2011).

Tests used:
Assay type in all cases: biochemical
[1] = test system: AlDH of bacterial sources; assay: Screening of tryptophan metabolites for inhibition of bacterial AlDH activity in vitro; conditions: for % inhibition of AlDH activity: 100 μM concentration, in vitro
Description: Tryptophan and its various metabolites were tested for possible inhibition of activity of AlDH of bacterial sources. The terms “inhibitor of AlDH activity” and the like mean that the activity of AlDH in vivo in the presence of the inhibitor is reduced. In practice, this may be predicted by reference to the inhibitory activity of the compound or composition in vitro.
An enzyme preparation was purchased from Sigma, (Poole, Dorset, UK) and was used for the screening of tryptophan and its metabolites. A number of preliminary experiments were performed to optimise the conditions of the assay, which was performed according to standard experimental conditions published in the literature and well known to those skilled in the art. All assays were performed in triplicate or quadruplicate determinations for both controls (no additions) and tryptophan metabolites.
Tryptophan and its metabolites were first tested at a 100 μM concentration. The tryptophan metabolites screened included the following: […]

[2] = molecular target: T1, low Km AlDH from rat liver (Rattus norvegicus, UniProt P11884); assay: Inhibition of mammalian mitochondrial (low Km) AlDH in rat liver preparation; conditions: Example 3, preliminary results, 2 μM concentration
T1 construct: using a preparation from rat liver containing both Low Km and high Km AlDH; from tissue; host or cells: rat liver preparation
T1 sequence (P11884 20-519): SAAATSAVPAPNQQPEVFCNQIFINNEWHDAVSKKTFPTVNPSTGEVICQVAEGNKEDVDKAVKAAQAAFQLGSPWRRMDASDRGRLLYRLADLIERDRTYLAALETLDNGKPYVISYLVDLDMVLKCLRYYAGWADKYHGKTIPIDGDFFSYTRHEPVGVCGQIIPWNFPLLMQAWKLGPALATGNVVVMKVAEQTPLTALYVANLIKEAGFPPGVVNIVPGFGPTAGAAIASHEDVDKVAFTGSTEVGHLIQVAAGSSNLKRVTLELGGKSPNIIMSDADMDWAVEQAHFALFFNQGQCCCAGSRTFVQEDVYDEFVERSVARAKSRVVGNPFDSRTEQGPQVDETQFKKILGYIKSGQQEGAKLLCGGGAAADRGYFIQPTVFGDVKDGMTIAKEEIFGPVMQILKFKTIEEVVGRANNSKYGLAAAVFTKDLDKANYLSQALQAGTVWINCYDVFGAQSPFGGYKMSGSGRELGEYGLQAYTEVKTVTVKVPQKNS

[3] = molecular target: T1, low Km AlDH from rat liver; assay: as above; conditions: Example 4, rat liver low Km AlDH, 5 μM acetaldehyde
Description: Experiments were therefore performed using a preparation from rat liver in which both the low Km and the high Km enzymes can be measured simultaneously, but at different substrate (acetaldehyde) concentrations, namely, 5 μM for the low Km and 5 mM for the high Km, enzyme.

Nc1c(O)cccc1C(=O)O [3-hydroxyanthranilic acid]
inhibition of bacterial AlDH activity ([1]; 2 μM concentration): 3%
inhibition of bacterial AlDH activity ([1]; 10 μM concentration): 17%
% inhibition of AlDH activity [1]: 97%
inhibition of the mammalian low km enzyme [2]: 46%
inhibition of activity of the low Km enzyme ([3]; 2 μM concentration): 46%
inhibition of activity of the low Km enzyme ([3]; 10 μM concentration): 54%
inhibition of activity of the low Km enzyme ([3]; 100 μM concentration): 76%

NCCc1c[nH]c2ccccc12 [tryptamine]
% inhibition of AlDH activity [1]: 0%

O=C(O)c1cc(O)c2cccc(O)c2n1 [xanthurenic acid]
% inhibition of AlDH activity [1]: 56%

OCCc1c[nH]c2ccc(O)cc12 [5-hydroxytryptophol]
% inhibition of AlDH activity [1]: 7%

O=C(O)Cc1c[nH]c2ccc(O)cc12 [5-hydroxyindol-3-ylacetic acid]
% inhibition of AlDH activity [1]: 4%

NCCc1c[nH]c2ccc(O)cc12 [5-hydroxytryptamine]
% inhibition of AlDH activity [1]: 15%

O=CCc1c[nH]c2ccccc12 [indol-3-ylacetaldehyde]
% inhibition of AlDH activity [1]: 55%

Nc1ccccc1C(=O)CC(N)C(=O)O (stereo not drawn) [kynurenine]
% inhibition of AlDH activity [1]: 24%

N[C@@H](Cc1c[nH]c2ccccc12)C(=O)O [tryptophan]
% inhibition of AlDH activity [1]: 2%

Nc1ccccc1C(=O)O [anthranilic acid]
% inhibition of AlDH activity [1]: 9%

N[C@@H](Cc1c[nH]c2ccc(O)cc12)C(=O)O [5-hydroxytrytophan]
% inhibition of AlDH activity [1]: 23%

Nc1c(O)cccc1C(=O)CC(N)C(=O)O (stereo not drawn) [3-hydroxykynurenine]
inhibition of bacterial AlDH activity ([1]; 2 μM concentration): +1%
inhibition of bacterial AlDH activity ([1]; 10 μM concentration): 55%
% inhibition of AlDH activity [1]: 97%
inhibition of the mammalian low km enzyme [2]: 65%
inhibition of activity of the low Km enzyme ([3]; 2 μM concentration): 55%
inhibition of activity of the low Km enzyme ([3]; 10 μM concentration): 52%
inhibition of activity of the low Km enzyme ([3]; 100 μM concentration): 69%

O=C(O)C(=O)Cc1c[nH]c2ccccc12 [indol-3-ylpyruvic acid]
inhibition of bacterial AlDH activity ([1]; 2 μM concentration): 24%
inhibition of bacterial AlDH activity ([1]; 10 μM concentration): 29%
% inhibition of AlDH activity [1]: 94%
inhibition of the mammalian low km enzyme [2]: 37%
inhibition of activity of the low Km enzyme ([3]; 2 μM concentration): 30%
inhibition of activity of the low Km enzyme ([3]; 10 μM concentration): 38%
inhibition of activity of the low Km enzyme ([3]; 100 μM concentration): 53%

O=C(O)c1ccc2ccccc2n1 [quinaldic acid]
% inhibition of AlDH activity [1]: 7%

O=C(O)Cc1c[nH]c2ccccc12 [indol-3-ylacetic acid]
% inhibition of AlDH activity [1]: 11%

O=C(O)c1cc(=O)c2ccccc2[nH]1 [kynurenic acid]
inhibition of bacterial AlDH activity ([1]; 2 μM concentration): 5%
inhibition of bacterial AlDH activity ([1]; 10 μM concentration): 30%
% inhibition of AlDH activity [1]: 90%
inhibition of the mammalian low km enzyme [2]: 30%
inhibition of activity of the low Km enzyme ([3]; 2 μM concentration): 40%
inhibition of activity of the low Km enzyme ([3]; 10 μM concentration): 43%
inhibition of activity of the low Km enzyme ([3]; 100 μM concentration): 43%

NC(=O)c1cccnc1 [nicotinamide]
% inhibition of AlDH activity [1]: 7%

O=C(O)c1cccnc1C(=O)O [quinolinic acid]
% inhibition of AlDH activity [1]: 13%

c1ccc2c(c1)[nH]c1cnccc12 [norharman]
% inhibition of AlDH activity [1]: 23%

CCN(CC)C(=S)SSC(=S)N(CC)CC [disulfiram, reference compound]
inhibition of the mammalian low km enzyme [2]: 30-46%
inhibition of activity of the low Km enzyme ([3]; 2 μM concentration): 30-46%
inhibition of activity of the low Km enzyme ([3]; 10 μM concentration): 38-43%
inhibition of activity of the low Km enzyme ([3]; 100 μM concentration): 46-50%

O=C(O)CCCC(=O)C(=O)O [α-ketoadipic acid]
% inhibition of AlDH activity [1]: 1%
